In patent US20140249139A1, “Quinazoline Derivatives” (NOVARTIS AG, priority 2011, published 2014) one finds IC50 data, which are given here for seven compounds.

The target in experiment [1] is T1, PI3K delta (Homo sapiens, UniProt O00329).
T1 construct: myristylation signal (myr) (N); HA tag (N); expressed in transfected cells; host or cells: Rat1 cells, stably transfected
T1 sequence (O00329 1-1044): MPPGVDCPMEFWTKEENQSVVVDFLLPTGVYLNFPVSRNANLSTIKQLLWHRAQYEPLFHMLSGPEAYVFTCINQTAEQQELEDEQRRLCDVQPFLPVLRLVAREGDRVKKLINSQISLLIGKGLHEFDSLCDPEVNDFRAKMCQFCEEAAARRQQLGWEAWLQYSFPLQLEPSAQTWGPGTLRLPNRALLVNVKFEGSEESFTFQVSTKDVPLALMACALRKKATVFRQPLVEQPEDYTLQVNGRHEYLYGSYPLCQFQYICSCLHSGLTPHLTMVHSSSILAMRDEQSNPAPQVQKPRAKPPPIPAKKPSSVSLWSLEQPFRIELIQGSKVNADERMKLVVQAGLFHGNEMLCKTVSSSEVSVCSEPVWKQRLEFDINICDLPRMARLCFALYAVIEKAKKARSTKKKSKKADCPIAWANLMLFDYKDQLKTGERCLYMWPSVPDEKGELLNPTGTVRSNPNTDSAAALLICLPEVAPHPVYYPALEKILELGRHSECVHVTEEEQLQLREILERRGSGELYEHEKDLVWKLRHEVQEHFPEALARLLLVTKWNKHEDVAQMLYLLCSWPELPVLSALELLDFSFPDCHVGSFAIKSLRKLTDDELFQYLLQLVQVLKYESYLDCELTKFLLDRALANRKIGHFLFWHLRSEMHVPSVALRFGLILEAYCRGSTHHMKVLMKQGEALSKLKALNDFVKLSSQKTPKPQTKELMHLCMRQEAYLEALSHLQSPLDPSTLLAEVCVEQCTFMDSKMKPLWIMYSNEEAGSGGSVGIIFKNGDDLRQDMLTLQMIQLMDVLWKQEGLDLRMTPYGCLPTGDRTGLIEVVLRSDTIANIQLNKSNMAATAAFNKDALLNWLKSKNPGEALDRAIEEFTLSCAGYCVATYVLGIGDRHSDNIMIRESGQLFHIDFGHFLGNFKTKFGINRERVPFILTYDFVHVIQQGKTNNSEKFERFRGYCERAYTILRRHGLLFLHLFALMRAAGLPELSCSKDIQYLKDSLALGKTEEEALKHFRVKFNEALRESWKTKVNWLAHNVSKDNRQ
The experiment can be described thus: Cellular PI3K delta inhibition: PKB Ser473 phosphorylation in Rat1 cells expressing myr-HA-p110 delta. Format: cell-based, rat. Conditions: 1 h incubation, read-out: Cell PI3Kd/ IC50. On the procedure:
The compounds tested were prepared as 10 mM stock solutions in DMSO (Merck, #8.02912.2500). Test compounds were prepared in 384 well plates (Greiner PP-Microplate, #781201) in 3-fold serial dilutions in 90% DMSO (Merck, #8.02912.2500) with 8 concentrations starting at 2 mM. Test compounds were prediluted (1:400) in two subsequent 1:20 dilution steps (5 μl+95 μl) from the master plate into starving medium in 384 well plates using a MATRIX PlateMate 2×2 pipettor (384 well-head). 25 μl/well of this 1:400 dilution were then added to the cell culture plate.
The Rat1-myr-HA-p110 alpha, beta and delta cells were trypsinized and counted with a CASY TT cell counter (Schärfe System GmbH, Reutlingen Germany). Rat1 cells expressing myr-HA-p110 alpha, beta and delta were seeded in 384-well plates at 15,000 cells per well in 50 μl/well complete medium and incubated for 20 h at 37° C., 5% CO2 until the cell layers reached 80-90% confluency. […] in 384 well plates using a MATRIX PlateMate 2×2 pipettor (384 well-head). 25 μl/well of this 1:400 dilution were then added to the cell culture plate.
Untreated cells were used as low controls, cells stimulated in absence of compounds were used as high controls. After an incubation of 1 h with compounds, cells were lysed by addition of 15 μl 3× lysis buffer (provided as 5× solution with the SureFire kit) enriched with 0.72% BSA, yielding a total volume of 45 μl cell lysate per well. Cell lysates were either used immediately of stored frozen (in sealed plates) at −20° C. until use. 5 μl of each lysate were transferred to Proxy-plates and mixed with Surefire beads, reaction buffer (containing the appropriate antibodies), activation buffer and dilution buffer according to the instructions of the supplier, yielding a total volume of 12 μl per well (the total final BSA conc. in the assay was 0.1%). After 2 h incubation (with shaking) in the dark at RT, light emission was measured using the EnVision Reader (Perkin Elmer). The difference between high and low controls was taken as 100% and compound effects were expressed as percent inhibition. IC50 values were determined from the dose response curves by graphical extrapolation.

The target in experiment [2] is T2, PI3K alpha (Homo sapiens, UniProt P42336).
T2 construct: for the p110-a subunit (with a deletion of the first 20 amino acids) are generated; His tag (C); made in house; host or cells: baculovirus BV1075; Tn5 (Trichoplusia ni) or TiniPro insect cells
The experiment can be described thus: Enzymatic PI3K alpha isoform inhibition (lipid kinase activity, Kinase-Glo). Format: biochemical. Conditions: enzymatic assay. The gist of the method: (§1)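 Reactions were started with ATP (2 μM solution) after the enzyme (10 nM solution) and phosphatidylinositol substrate (5 μg/ml solution) were added to the DMSO-dissolved compounds.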

Experiment [3] concerns the target T3, PI3K delta (Homo sapiens, UniProt O00329).
T3 construct: for the full-length p110-d subunit are generated and fused by overlapping PCR; His tag (C); made in house; host or cells: baculovirus BV1060; Tn5 (Trichoplusia ni) or TiniPro insect cells
The experiment can be described thus: Enzymatic PI3K delta isoform inhibition (lipid kinase activity, Kinase-Glo). Format: biochemical. Conditions: enzymatic assay. The gist of the method: as §1
T3 sequence (O00329 with tags, fused parts or gaps limits assumed, species assumed): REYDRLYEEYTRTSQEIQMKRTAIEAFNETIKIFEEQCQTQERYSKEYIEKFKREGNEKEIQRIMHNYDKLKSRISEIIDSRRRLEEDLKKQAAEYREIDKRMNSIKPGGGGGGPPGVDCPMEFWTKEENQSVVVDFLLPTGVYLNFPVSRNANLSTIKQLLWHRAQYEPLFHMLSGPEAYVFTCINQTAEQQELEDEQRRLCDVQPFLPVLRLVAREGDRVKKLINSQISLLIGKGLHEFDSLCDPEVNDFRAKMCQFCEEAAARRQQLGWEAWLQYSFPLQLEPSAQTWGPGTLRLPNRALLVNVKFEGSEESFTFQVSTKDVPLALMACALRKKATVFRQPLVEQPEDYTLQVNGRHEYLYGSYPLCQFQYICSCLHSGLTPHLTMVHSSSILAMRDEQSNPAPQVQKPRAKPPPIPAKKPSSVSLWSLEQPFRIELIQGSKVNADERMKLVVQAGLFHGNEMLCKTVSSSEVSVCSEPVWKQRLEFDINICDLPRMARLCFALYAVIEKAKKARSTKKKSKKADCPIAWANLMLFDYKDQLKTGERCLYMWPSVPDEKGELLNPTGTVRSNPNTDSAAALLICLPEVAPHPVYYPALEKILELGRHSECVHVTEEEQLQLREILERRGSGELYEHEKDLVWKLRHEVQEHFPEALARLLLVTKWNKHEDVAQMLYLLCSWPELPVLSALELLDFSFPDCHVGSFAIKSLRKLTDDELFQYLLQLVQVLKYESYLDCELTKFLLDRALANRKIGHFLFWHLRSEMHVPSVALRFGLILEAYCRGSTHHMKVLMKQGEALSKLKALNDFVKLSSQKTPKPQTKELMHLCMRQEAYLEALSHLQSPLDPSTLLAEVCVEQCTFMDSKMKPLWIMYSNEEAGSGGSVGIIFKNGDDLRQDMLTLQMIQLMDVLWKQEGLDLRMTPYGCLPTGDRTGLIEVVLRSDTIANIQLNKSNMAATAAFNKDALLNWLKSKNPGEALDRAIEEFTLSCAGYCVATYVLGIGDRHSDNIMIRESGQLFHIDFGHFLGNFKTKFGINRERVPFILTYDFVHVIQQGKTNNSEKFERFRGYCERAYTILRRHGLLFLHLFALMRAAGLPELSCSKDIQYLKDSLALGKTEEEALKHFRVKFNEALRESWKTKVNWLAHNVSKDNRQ

T2 sequence (P42336 with tags, fused parts or gaps limits assumed, species assumed): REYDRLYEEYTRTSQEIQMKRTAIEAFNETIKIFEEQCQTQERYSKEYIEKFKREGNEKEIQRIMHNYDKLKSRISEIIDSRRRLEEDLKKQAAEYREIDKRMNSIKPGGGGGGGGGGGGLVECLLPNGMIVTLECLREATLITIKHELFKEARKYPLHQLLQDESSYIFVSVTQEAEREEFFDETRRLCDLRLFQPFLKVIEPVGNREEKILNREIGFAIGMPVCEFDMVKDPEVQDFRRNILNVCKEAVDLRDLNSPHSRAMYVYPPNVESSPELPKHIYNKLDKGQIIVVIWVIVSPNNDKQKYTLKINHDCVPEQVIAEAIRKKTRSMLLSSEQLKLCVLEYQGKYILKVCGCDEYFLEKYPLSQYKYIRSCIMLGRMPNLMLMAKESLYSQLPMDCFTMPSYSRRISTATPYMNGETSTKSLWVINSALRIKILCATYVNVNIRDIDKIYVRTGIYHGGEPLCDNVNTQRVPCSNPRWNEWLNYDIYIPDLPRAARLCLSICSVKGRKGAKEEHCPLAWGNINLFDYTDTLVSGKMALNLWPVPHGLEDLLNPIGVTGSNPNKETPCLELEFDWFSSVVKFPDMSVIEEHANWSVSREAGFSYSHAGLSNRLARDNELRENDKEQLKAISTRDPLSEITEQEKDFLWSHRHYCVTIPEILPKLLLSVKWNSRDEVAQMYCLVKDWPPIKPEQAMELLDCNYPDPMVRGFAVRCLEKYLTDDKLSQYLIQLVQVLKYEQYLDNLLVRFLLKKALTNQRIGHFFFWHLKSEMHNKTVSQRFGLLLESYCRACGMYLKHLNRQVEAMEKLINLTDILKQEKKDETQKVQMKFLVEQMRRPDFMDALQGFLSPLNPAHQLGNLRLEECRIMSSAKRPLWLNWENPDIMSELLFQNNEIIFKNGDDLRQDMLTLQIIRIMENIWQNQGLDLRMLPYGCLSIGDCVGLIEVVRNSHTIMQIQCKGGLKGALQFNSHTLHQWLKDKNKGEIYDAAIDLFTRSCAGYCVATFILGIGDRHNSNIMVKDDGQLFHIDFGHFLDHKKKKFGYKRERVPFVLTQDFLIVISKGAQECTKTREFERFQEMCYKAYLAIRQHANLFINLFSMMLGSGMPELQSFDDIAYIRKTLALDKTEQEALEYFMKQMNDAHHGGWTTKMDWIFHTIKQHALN

For `COc1ncc(-c2ccc3ncnc(-c4cccc(C(=O)N5CCN(C)CC5)c4)c3c2)cn1` [Example 2], the IC50 amounted to 27.5 nM in experiment [1], 779 nM in experiment [2] and 9.5 nM in experiment [3].

With `COc1ccc(-c2ccc3ncnc(-c4cncc(C(=O)N5CCNC(C)(C)C5)c4)c3c2)cc1C(F)(F)F` [Example 81, (3,3-Dimethyl-piperazin-1-yl)-{5-[6-(4-methoxy-3-trifluoromethyl-phenyl)-quinazolin-4-yl]-pyridin-3-yl}-methanone], the IC50 in experiment [1] was 19.5 nM; in experiment [2], 401 nM; in experiment [3], 3.62 nM.

As for `COc1ccc(-c2ccc3ncnc(-c4cccc(C(=O)N5CCN(C(C)=O)CC5)c4)c3c2)cc1S(=O)(=O)N1CCCC1` [Example 7], the IC50 in experiment [1] worked out at 83 nM; in experiment [2], 712 nM; in experiment [3] it was 6 nM.

On to `COc1ccc(-c2ccc3ncnc(-c4ccc(C)c(C(=O)N5CC6CC5CN6C)c4)c3c2)cn1` (stereo not drawn) [Example 117], for which the IC50 in experiment [1] worked out at 43 nM; in experiment [2], 238 nM; in experiment [3], 9 nM.

`COc1ccc(-c2ccc3ncnc(-c4cc(F)cc(C(=O)N5CCN(C(C)=O)CC5)c4)c3c2)cn1` [Example 110, 1-(4-{3-Fluoro-5-[6-(6-methoxy-pyridin-3-yl)-quinazolin-4-yl]-benzoyl}-piperazin-1-yl)-ethanone]: the figures for the IC50 in experiment [1], in experiment [2] and in experiment [3] were 103 nM, 366 nM and 8 nM, respectively.

With `COc1ccc(-c2ccc3ncnc(-c4cccc(C(=O)N5C[C@@H]6C[C@H]5CN6C)c4)c3c2)cn1` [Example 91, {3-[6-(6-Methoxy-pyridin-3-yl)-quinazolin-4-yl]-phenyl}-((1S,4S)-5-methyl-2,5-diaza-bicyclo[2.2.1]hept-2-yl)-methanone], the figures for the IC50 in experiment [1], in experiment [2] and in experiment [3] were 32.3 nM, 146 nM and under 3 nM, respectively.

As to `CNc1ncc(-c2ccc3ncnc(-c4cncc(C(=O)N5CCN(C)CC5)c4)c3c2)cc1C` [Example 75, {5-[6-(5-Methyl-6-methylamino-pyridin-3-yl)-quinazolin-4-yl]-pyridin-3-yl}-(4-methyl-piperazin-1-yl)-methanone], the IC50 in experiment [1] was 14 nM; in experiment [2], 320 nM; in experiment [3], 12 nM.
